Here are results for five compounds from patent EP1673349B1, “BENZIMIDAZOLE DERIVATIVES: PREPARATION AND PHARMACEUTICAL APPLICATIONS” (priority 2003, dated 2005).

Broadly, the IC50 is the concentration needed to halve the response being measured. The GI50 is the concentration that inhibits growth by half.

Like-named read-outs stand apart in the source and are kept apart here.

One experiment concerns the target HDAC8 enzyme. Briefly: In vitro HDAC assay (BIOMOL fluorescent-based HDAC activity assay), HDAC8. Format: biochemical, human.
A further experiment deals with Colo205. Briefly: Cell-based proliferation assay (cyquant), Colo205.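 Further: Colo205 cells exposed for 96 h to a range of compound concentrations, growth read by CyQUANT, GI50 taken from plotted dose-response curves.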 The arrangement: species or system human. The following applies: Homo sapiens.
Another experiment has as its system MDA-MB435. Briefly: Cell-based proliferation assay (cyquant), MDA-MB435.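 Further: GI50 taken from dose–response curves over a range of compound concentrations, with cell growth quantified by the CyQUANT proliferation assay.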 The arrangement: species or system human. The note with it: Homo sapiens, MDA-MB-435.
A further experiment deals with acetylated H3. Briefly: Histone acetylation assay by immuno-blotting, acetylated H3. Format: cell-based, human. The note with it: Colo205 cells, 0.1, 1, 5 and 10 µM, 24 h, western blot. How it is done: (§1) A hallmark of histone deacetylase (HDAC) inhibition is the increase in the acetylation level of histones. Histone acetylation, including H3, H4 and H2A can be detected by immuno-blotting (westem-blot). Colo205 cells, approximately 1.5 x10^6 cells/ 10 cm dish, were seeded in the previously described medium, cultivated for 24 h and subsequently treated with HDAC inhibitory agents at 0.1, 1; 5 and 10 µM final concentration. After 24 h, cells were harvested and lysed according to the instruction from Sigma Mammalian Cell Lysis Kit. The protein concentration was quantified using BCA method (Sigma Pte Ltd). The protein lysate was separated using 4-12% bis-tris SDS-PAGE gel (Invitrogen Pte Ltd) and was transferred onto PVDF membrane (BioRad Pte Ltd). The membrane was probed separately using primary antibody specific for acetylated H3, acetylated H4 or acetylated H2A (Upstate Pte Ltd). The detection antibody, goat anti rabbit antibody conjugated with HRP was used according to the manufacturing instruction (Pierce Pte Ltd). After removing the detection antibody from the membrane, an enhanced chemiluminescent substrate for detection of HRP (Pierce Pte Ltd) was added onto the membrane. After removing the substrate, the membrane was exposed to an X-ray film (Kodak) for 1 sec - 20 mins. The X-ray film was developed using the X-ray film processor. The density of each band observed on the developed film could be analysed using UVP Bioimaging software (UVP, Inc, Upland, CA). The values were then normalized against the density of actin in the corresponding samples to obtain the expression of the protein.
(In general: Immunoblotting shows a protein as a band on a membrane.)

The test system of a further experiment is acetylated H4. Briefly: Histone acetylation assay by immuno-blotting, acetylated H4. It is filed as cell-based, human. The note with it: Colo205 cells, 0.1, 1, 5 and 10 µM, 24 h, western blot. How it is done: as §1
The subject of the next experiment is acetylated H2A. Briefly: Histone acetylation assay by immuno-blotting, acetylated H2A. Format: cell-based, human. The note with it: Colo205 cells, 0.1, 1, 5 and 10 µM, 24 h, western blot. As for the experimental part:
as §1

For a further experiment, the system named is HDAC3. The experiment is described as follows: In vitro HDAC assay, HDAC3. Format: biochemical. The note with it: Table 5; Free base. As for the experimental part:
The assay has been carried, out in 96 well format and the BIOMOL fluorescent-based HDAC activity assay has been applied. […] Flur de lys Developer was added and the reaction was incubated for 10 min. Briefly, deacetylation of the substrate sensitizes it to the developer, which then generates a fluorophore (symbol). The fluorophore is excited with 360 nm light and the emitted light (460 nm) is detected on a fluorometric plate reader (Tecan Ultra Microplate detection system, Tecan Group Ltd.).
The analytical software, Prism 3.0 has been used to generate IC50 from a series of data.

For a further experiment, the system named is HCT116. Briefly: Cell-based proliferation assay (cyquant), HCT116. The note with it: Homo sapiens, HCT-116; Table 5; Free base.
A further experiment deals with MDA-MB231. Briefly: Cell-based proliferation assay (cyquant), MDA-MB231. The following applies: Homo sapiens, MDA-MB-231; Table 5; Free base.
For another experiment, the system named is A549. Briefly: Cell-based proliferation assay (cyquant), A549. The following applies: Homo sapiens, Table 5, Free base.
For a further experiment, the target named is HDAC1 enzyme (Homo sapiens, UniProt Q13547). Briefly: In vitro HDAC assay (BIOMOL fluorescent-based HDAC activity assay), HDAC1. It is filed as biochemical.
Setting [1] is: Table 3, read-out: HDAC8 Enzyme Activity IC50.
[2] abbreviates: COLO 205, 96 h, Table 4, 96 h treatment.
The mark [3] stands for this setting: COLO 205, Table 5, Salt of CF3COOH.
Setting [4] is: Table 5, Salt of CF3COOH, read-out: IC50 (HDAC1).
Setting [5] is: Table 5, Free base, read-out: IC50 (HDAC8).

Sequence of HDAC1 enzyme (Q13547 whole entry): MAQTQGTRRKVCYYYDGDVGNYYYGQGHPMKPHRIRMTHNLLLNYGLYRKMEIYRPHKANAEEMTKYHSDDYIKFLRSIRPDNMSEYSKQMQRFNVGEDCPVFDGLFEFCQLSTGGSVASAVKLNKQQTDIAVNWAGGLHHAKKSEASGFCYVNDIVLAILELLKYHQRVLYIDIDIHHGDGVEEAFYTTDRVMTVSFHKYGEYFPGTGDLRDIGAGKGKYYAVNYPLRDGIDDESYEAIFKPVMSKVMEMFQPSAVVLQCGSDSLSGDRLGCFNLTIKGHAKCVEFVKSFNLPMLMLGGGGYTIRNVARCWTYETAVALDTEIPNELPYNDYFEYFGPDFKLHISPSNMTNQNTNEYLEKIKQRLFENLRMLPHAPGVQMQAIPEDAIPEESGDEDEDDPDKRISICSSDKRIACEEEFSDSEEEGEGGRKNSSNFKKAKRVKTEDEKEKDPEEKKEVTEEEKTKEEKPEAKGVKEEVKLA
Description for A549: (§2) Human colon cancer cell lines (Colo205 and HCT116), human breast cancer cell lines (MDA-MB435 and MDA-MB231), and human lung cancer cell line (A549) were obtained from ATCC. […] MDA-MB435 cells were cultivated in DMEM containing 2 mM L-Glutamine, 5% FBS. HCT116 cells were cultivated in IMEM containing 2 mM L-Glutamine, 5% FBS. A549 and Colo205 cells were seeded in 96-wells plate at 2000 and 5000 cells per well respectively. MDA-MB435, HCT116, MDA-MB231 cells were seeded in 96-wells plate at 6000 cells per well. The plates were incubated at 37°C, 5% CO2, for 24 h. Cells, were treated with compounds at various concentration for 96 h. Cell growth was then monitored using cyquant cell proliferation assay (Invitrogen Pte Ltd). Dose response curves were plotted to determine GI50 values for the compounds using XL-fist.
Description for Colo205: as §2
Description for HCT116: as §2
Description for HDAC1 enzyme: (§3) Expression of GST-HDAC1 or HTGST-HDAC8 was done by infecting SF9 cells (Invitrogen Pte Ltd) with pDEST20-HDAC1 or pFASTBAC-GST-HDAC8 baculovirus at MOI=1 for 48 h. Soluble cell lysate was incubated with pre-equilibrated Glutathione Sepharose 4B beads (Amersham) at 4°C for 2 h. The beads were washed with PBS buffer for 3 times. The GST-HDAC1 protein or GST-HDAC8 protein was eluted by elution buffer containing 50 mM Tris, pH8.0, 150mM NaCl, 1% Triton X-100 and 10mM or 20mM reduced Glutathione. The purified GST-HDAC1 protein or purified GST-HDAC8 protein was dialyzed with HDAC storage buffer containing 10mM Tris, pH7.5, 100mM NaCl and 3mM MgCl2. 20% Glycerol was added to purified GST-HDAC1 protein or purified GST-HDAC8 before storage at -80°C.
Description for HDAC8 enzyme: as §3
Description for MDA-MB231: as §2
Description for MDA-MB435: as §2

Turning to `CC(Cc1nc2cc(/C=C/C(=O)NO)ccc2n1CCCO)c1ccccc1` (stereo not drawn) [Compound 1, N-Hydroxy-3-[1-(3-hydroxy-propyl)-2-(2-phenyl-propyl)-1H-benzimidazol-5-yl]-acrylamide], at HDAC8 enzyme (setting [1]), the half-inhibitory concentration (IC50) amounted to 119 nM. Besides, the GI50 in the experiment with Colo205 (setting [2]) was 520 nM; with MDA-MB435 (Table 4, 96 h treatment), 1640 nM. Also, the “Histone acetylation activities Histone-3” value with acetylated H3 is “Active”. Also, the “Histone acetylation activities Histone-4” value in the experiment on acetylated H4 was “Active”. Besides, the “Histone acetylation activities Histone-2A” value in the experiment on acetylated H2A is reported as “Active”.

Take `COc1cc(Cn2c(CCc3ccccc3)nc3cc(/C=C/C(=O)NO)ccc32)cc(OC)c1OC` [Compound 2, N-Hydroxy-3-[1-(3,4,5-trimethoxybenzyl)-2-(2-phenyl-ethyl)-1H-benzimidazol-5-yl]-acrylamide]: the IC50 stood at 355 nM at HDAC8 enzyme (setting [1]) and 64 nM in the experiment on HDAC3. Further, the GI50 with Colo205 (setting [2]) came to 430 nM; in the experiment on Colo205 (COLO 205, Table 5, Free base) it was 400 nM; with Colo205 (setting [3]) it was 400 nM; with MDA-MB435 (Table 4, 96 h treatment), 320 nM; in the experiment on MDA-MB435 (Table 5, Free base), 300 nM; with HCT116 it was 400 nM. In addition, the GI50 worked out at 500 nM with MDA-MB231 and 300 nM in the experiment with A549. In addition, the “Histone acetylation activities Histone-3” value in the experiment with acetylated H3 is “Active”. Further, in the experiment with acetylated H4, the “Histone acetylation activities Histone-4” value is on record as “Active”. In addition, the “Histone acetylation activities Histone-2A” value in the experiment with acetylated H2A is “Active”.

Regarding `O=C(/C=C/c1ccc2c(c1)nc(CCc1ccccc1)n2Cc1cccnc1)NO` [Compound 12, N-Hydroxy-3-[1-(3-pyridylmethyl)-2-(2-phenyl-ethyl)-1H-benzimidazol-5-yl]-acrylamide], the IC50 on HDAC8 enzyme (setting [1]) is 202 nM. Moreover, the GI50 in the experiment with Colo205 (COLO 205, Table 4, 96 h treatment) came to 380 nM; with MDA-MB435 (Table 4, 96 h treatment), 1070 nM. Moreover, in the experiment on acetylated H3, the “Histone acetylation activities Histone-3” value is listed as “Active”. Moreover, the “Histone acetylation activities Histone-4” value in the experiment with acetylated H4 is “Active”.

For `CN(C)CC(C)(C)Cn1c(CCc2ccccc2)nc2cc(/C=C/C(=O)NO)ccc21` [Compound 17, N-Hydroxy-3-[1-(3-Dimethylamino-2,2-dimethyl-proppyl)-2-phenethyl-1H-benzimidazol-5-yl]-acrylamide], the IC50 was found to be 24 nM on HDAC1 enzyme (Table 3, read-out: HDAC1 Enzyme Activity IC50); 24 nM at HDAC1 enzyme (setting [4]); 353 nM on HDAC8 enzyme (setting [1]); 353 nM at HDAC8 enzyme (setting [5]). The GI50 in the experiment on Colo205 (setting [2]) stood at 60 nM; with Colo205 (COLO 205, Table 5, Free base), 60 nM; in the experiment with Colo205 (setting [3]), 110 nM; with Colo205 (COLO 205, Table 5, Salt of HCl), 60 nM; with Colo205 (COLO 205, Table 5, Salt of Methane sulfonic acid), 40 nM; in the experiment on MDA-MB435 (Table 4, 96 h treatment) it was 560 nM. For the same compound, the GI50 was 600 nM in the experiment on MDA-MB435 (Table 5, Free base); 300 nM with HCT116; 700 nM with MDA-MB231; 200 nM in the experiment with A549. For the same compound, the “Histone acetylation activities Histone-3” value with acetylated H3 is “Active”. Further, the “Histone acetylation activities Histone-4” value with acetylated H4 is given as “Active”. Besides, the “Histone acetylation activities Histone-2A” value in the experiment on acetylated H2A is given as “Active”.

For `O=C(/C=C/c1ccc2c(c1)nc(CCc1ccccc1)n2CCN1CCCCC1)NO` [Compound 67, N-Hydroxy-3-[2-phenethyl-1-(piperidin-1-yl-ethyl)-1H-benzimidazol-5-yl]-acrylamide], the IC50 on HDAC1 enzyme (setting [4]) worked out at 39 nM; at HDAC8 enzyme (setting [5]) it was 254 nM; in the experiment on HDAC3, 56 nM. The GI50 with Colo205 (setting [2]) was found to be 80 nM; in the experiment on Colo205 (COLO 205, Table 5, Free base), 90 nM; in the experiment with Colo205 (setting [3]), 90 nM; with MDA-MB435 (Table 5, Free base) it was 190 nM; with HCT116, 60 nM; in the experiment on MDA-MB231 it was 60 nM. The GI50 with A549 stood at 80 nM. Moreover, the “Histone acetylation activities Histone-3” value in the experiment on acetylated H3 is reported as “Active”. For the same compound, the “Histone acetylation activities Histone-4” value in the experiment on acetylated H4 is recorded as “Active”. In the experiment with acetylated H2A, the “Histone acetylation activities Histone-2A” value is given as “Active”.
